US8748624B2, “Picolinamido-propanoic acid derivatives useful as glucagon receptor antagonists” (Janssen Pharmaceutica NV, priority 2011, dated 2014)

What was measured:
[1] = molecular target: human GCGR (Homo sapiens (Human), UniProt P47871); assay: Cellular functional assay, cAMP readout (glucagon-stimulated cAMP in HEK293 cells expressing human GCGR); assay type: cell-based; conditions: hGluc-1 HEK cells, LANCE TR-FRET, IC50 converted to Ki, average if tested more than once
Procedure: IC50 Values in Cellular Functional Assays: cAMP Readout
Full-length human GCGR (Accession Number: NM000160) subcloned into pcDNA3.1 was stably transfected into HEK293 cells (hGluc-1 HEK) and maintained under G418 selection (500 μg/mL). Cell cultures were maintained in DMEM/F12 media supplemented with 10% FBS and 1% GlutaMax. Glucagon stimulated cAMP was quantified using LANCE technology as per manufacturer instructions. On the day of the experiment, spent media was removed and cells were washed with Hank's Buffered Saline solution (HBSS) and cells were harvested with non-enzymatic cell dissociation solution, then washed once with HBSS. Cells were re-suspended in stimulation buffer at a concentration of 0.83×10^6 cells/ml and cAMP detection antibody was added. 6 μl/well of this solution was then dispensed in a 384 well plate (cell density 5000 cells/well). Test compound was serially diluted in DMSO and 50 nl were dispensed on top of the cell solution and allowed to incubate for 30 minutes. 6 μl of a 2× glucagon solution (final concentration in assay […]) was then added and the reaction was terminated after 5 minutes with the addition of detection mix. The mixture was incubated, protected from light for 1.5 h. cAMP levels were quantified by TR-FRET in an EnVision instrument against a known standard. IC50's were generated by using a non-linear regression macro driven in Excel and converted to K, values.

[2] = molecular target: human glucagon receptor (GCGR) (Homo sapiens (Human), UniProt P47871); assay: Inhibition of 125I-glucagon binding to membranes from HEK293 cells expressing the human glucagon receptor; conditions: membranes of hGluc-1 HEK cells, 125I-glucagon 0.3 nM, 2 hours room temperature; IC50 converted to Ki; average if tested more than once
Procedure: Inhibition ^125I-Glucagon Binding to Membranes from HEK293 Cells Expressing the Human Glucagon Receptor (GCGR)
Full-length human GCGR (Accession Number: NM000160) subcloned into pcDNA3.1 was stably transfected into HEK293 cells (hGluc-1 HEK) and maintained under G418 selection (500 μg/mL). Cell cultures were maintained in DMEM/F12 media supplemented with 10% FBS and 1% GlutaMax. Membranes were prepared from these cells as follows: cells were harvested from T225 flasks and re-suspended in hypotonic lysis buffer, 50 mM HEPES pH 7.4 supplemented with Complete Protease inhibitors (Boehringer Mannheim, Indianapolis, Ind.). Cells were dounced 20 times on ice and spun at 700×g to remove nuclei and unlysed cells. The resulting pellet was re-suspended in hypotonic lysis buffer and the above step was repeated. Supernatants from the low speed centrifugation were combined and subsequently spun at 100K×g for 1 hr at 4° C. and the resulting pellet was re-suspended in buffer containing 50 mM HEPES pH 7.4 and 10% sucrose and the protein concentration was adjusted at 1 mg/mL as determined in the BCA assay. Membranes were aliquoted and stored at −80° C. The binding assay was performed by a filtration method in a 384 well format. Membranes at a final protein concentration of 6 μg/well were incubated with ^125I-glucagon at 0.3 nM and in the presence of compound for 2 hours at room temperature in a total reaction volume of 40 μL per well. Assay buffer consisted of 50 mM HEPES, pH 7.4, 5 mM MgCl2, 1 mM CaCl2 and 0.2% BSA. 30 μL of the reaction was then transferred to PEI treated filter plates and followed by filter aspiration. Plates were then washed 5× and allowed to dry at room temperature overnight. The next day the bottom of the plate was covered with seal tape and scintillant was added. Total counts retained by the filters were quantified with a Top Count instrument. IC50's were generated by using a non-linear regression macro driven in Excel and converted to K's.

Chain of human GCGR (P47871 26-477): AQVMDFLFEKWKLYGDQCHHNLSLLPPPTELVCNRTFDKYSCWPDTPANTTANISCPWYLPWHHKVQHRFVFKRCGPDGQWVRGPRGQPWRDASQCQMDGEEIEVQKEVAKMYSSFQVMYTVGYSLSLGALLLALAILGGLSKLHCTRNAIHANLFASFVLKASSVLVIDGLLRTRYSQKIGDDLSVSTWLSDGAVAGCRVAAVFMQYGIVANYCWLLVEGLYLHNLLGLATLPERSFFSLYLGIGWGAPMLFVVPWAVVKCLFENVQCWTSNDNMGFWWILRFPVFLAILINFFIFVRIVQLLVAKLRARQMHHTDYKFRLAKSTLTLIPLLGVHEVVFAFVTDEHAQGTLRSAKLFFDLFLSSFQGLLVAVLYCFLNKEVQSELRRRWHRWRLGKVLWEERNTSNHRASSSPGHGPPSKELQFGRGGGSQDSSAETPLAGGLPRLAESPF
Chain of human glucagon receptor (GCGR) (P47871 26-477): as above

Row | Compound | Ki [1] [nM] | Ki [2] [nM]
1 | O=C(O)CCNC(=O)c1ccc(-c2ccccc2CNc2ccc(-c3ccccc3)cc2)cn1 [Compound 1, 3-(5-(2-(([1,1′-biphenyl]-4-ylamino)methyl)phenyl)picolinamido)propanoic acid] | > 10400 | > 5400
2 | O=C(O)CCNC(=O)c1ccc(-c2ccccc2CNc2ccc(-c3ccc(Cl)cc3)cc2)cn1 [Compound 2, 3-(5-(2-(((4′-chloro-[1,1′-biphenyl]-4-yl)amino)methyl)phenyl)picolinamido)propanoic acid] | 510 | 187
3 | CC(C)(C)c1ccc(-c2ccc(NCc3ccccc3-c3ccc(C(=O)NCCC(=O)O)nc3)cc2)cc1 [Compound 3, 3-(5-(2-(((4′-(tert-butyl)-[1,1′-biphenyl]-4-yl)amino)methyl)phenyl)picolinamido)propanoic acid] | > 10400 | > 5400
4 | O=C(O)CCNC(=O)c1ccc(-c2ccc(Cl)cc2CNc2ccc(-c3ccc(Cl)cc3)cc2)cn1 [Compound 4, 3-(5-(4-chloro-2-(((4′-chloro-[1,1′-biphenyl]-4-yl)amino)methyl)phenyl)picolinamido)propanoic acid] | 210 | 64.9
5 | O=C(O)CCNC(=O)c1ccc(-c2ccc(Cl)cc2CNc2ccc(-c3ccc(Cl)cc3Cl)cc2)cn1 [Compound 5, 3-(5-(4-chloro-2-(((2′,4′-dichloro-[1,1′-biphenyl]-4-yl)amino)methyl)phenyl)picolinamido)propanoic acid] | 181 | 67.1
6 | O=C(O)CCNC(=O)c1ccc(-c2cc(Cl)ccc2CNc2ccc(-c3ccc(Cl)cc3)cc2)cn1 [Compound 6, 3-(5-(5-chloro-2-(((4′-chloro-[1,1′-biphenyl]-4-yl)amino)methyl)phenyl)picolinamido)propanoic acid] | 50.5 | 40.1
7 | O=C(O)CCNC(=O)c1ccc(-c2cc(Cl)ccc2CNc2ccc(-c3ccc(Cl)cc3Cl)cc2)cn1 [Compound 7, 3-(5-(5-chloro-2-(((2′,4′-dichloro-[1,1′-biphenyl]-4-yl)amino)methyl)phenyl)picolinamido)propanoic acid] | 44.8 | 22.4
8 | O=C(O)CCNC(=O)c1ccc(-c2ccccc2CNc2ccc(-c3ccc(Cl)c(Cl)c3)cc2)cn1 [Compound 8, 3-(5-(2-(((3′,4′-dichloro-[1,1′-biphenyl]-4-yl)amino)methyl)phenyl)picolinamido)propanoic acid] | 565 | 94.3
9 | O=C(O)CCNC(=O)c1ccc(-c2cc(C(F)(F)F)ccc2CNc2ccc(-c3ccc(C(F)(F)F)cc3)c(C(F)(F)F)c2)cn1 [Compound 127, 3-(5-(2-(((2,4′-bis(trifluoromethyl)-[1,1′-biphenyl]-4-yl)amino)methyl)-5-(trifluoromethyl)phenyl)picolinamido)propanoic acid] | 70 | –
10 | O=C(O)CCNC(=O)c1ccc(-c2cc(C(F)(F)F)ccc2CNc2ccc(-c3ccc(C(F)(F)F)cc3Cl)c(C(F)(F)F)c2)cn1 [Compound 128, 3-(5-(2-(((2′-chloro-2,4′-bis(trifluoromethyl)-[1,1′-biphenyl]-4-yl)amino)methyl)-5-(trifluoromethyl)phenyl)picolinamido)propanoic acid] | 45.8 | –
11 | COc1cc(C(F)(F)F)cc(-c2ccc(C(=O)NCCC(=O)O)nc2)c1CNc1ccc(-c2ccc(C(F)(F)F)cc2)c(Cl)c1 [Compound 159, 3-(5-(2-(((2-chloro-4′-(trifluoromethyl)-[1,1′-biphenyl]-4-yl)amino)methyl)-3-methoxy-5-(trifluoromethyl)phenyl)picolinamido)propanoic acid] | 45.8 | –
12 | COc1cc(C(F)(F)F)cc(-c2ccc(C(=O)NCCC(=O)O)nc2)c1CNc1cc(Cl)c(-c2ccc(Cl)cc2)c(Cl)c1 [Compound 160, 3-(5-(3-methoxy-2-(((2,4′,6-trichloro-[1,1′-biphenyl]-4-yl)amino)methyl)-5-(trifluoromethyl)phenyl)picolinamido)propanoic acid] | 650 | –
13 | COc1cc(C(F)(F)F)cc(-c2ccc(C(=O)NCCC(=O)O)nc2)c1CNc1ccc(-c2ccc(C(F)(F)F)cc2Cl)cc1 [Compound 161, 3-(5-(2-(((2′-chloro-4′-(trifluoromethyl)-[1,1′-biphenyl]-4-yl)amino)methyl)-3-methoxy-5-(trifluoromethyl)phenyl)picolinamido)propanoic acid] | 38.7 | –
14 | COc1cc(C(F)(F)F)cc(-c2ccc(C(=O)NCCC(=O)O)nc2)c1CNc1ccc(-c2ccc(Cl)cc2)c(Cl)c1 [Compound 162, 3-(5-(2-(((2,4′-dichloro-[1,1′-biphenyl]-4-yl)amino)methyl)-3-methoxy-5-(trifluoromethyl)phenyl)picolinamido)propanoic acid] | 46.9 | –
15 | Cc1cc(C(F)(F)F)cc(-c2ccc(C(=O)NCCC(=O)O)nc2)c1CNc1ccc(-c2ccc(C(F)(F)F)cc2)c(Cl)c1 [Compound 163] | 14.4 | –
16 | O=C(O)CCNC(=O)c1ccc(-c2cc(C(F)(F)F)cc(O)c2CNc2ccc(-c3ccc(Cl)cc3)c(Cl)c2)cn1 [Compound 164, 3-(5-(2-(((2,4′-dichloro-[1,1′-biphenyl]-4-yl)amino)methyl)-3-hydroxy-5-(trifluoromethyl)phenyl)picolinamido)propanoic acid] | 61.2 | –
17 | Cc1cc(Cl)ccc1-c1ccc(NCc2c(C)cc(C(F)(F)F)cc2-c2ccc(C(=O)NCCC(=O)O)nc2)cc1Cl [Compound 165, 3-(5-(2-(((2,4′-dichloro-2′-methyl-[1,1′-biphenyl]-4-yl)amino)methyl)-3-methyl-5-(trifluoromethyl)phenyl)picolinamido)propanoic acid] | 6.4 | –
18 | Cc1cc(C(F)(F)F)ccc1-c1ccc(NCc2c(C)cc(C(F)(F)F)cc2-c2ccc(C(=O)NCCC(=O)O)nc2)cc1Cl [Compound 166, 3-(5-(2-(((2-chloro-2′-methyl-4′-(trifluoromethyl)-[1,1′-biphenyl]-4-yl)amino)methyl)-3-methyl-5-(trifluoromethyl)phenyl)picolinamido)propanoic acid] | 8.2 | –
19 | Cc1cc(C(F)(F)F)ccc1-c1ccc(NCc2c(-c3ccc(C(=O)NCCC(=O)O)nc3)cc(C(F)(F)F)cc2C(C)C)cc1Cl [Compound 167] | 10.8 | –
20 | Cc1cc(C(F)(F)F)ccc1-c1ccc(NCc2c(-c3ccc(C(=O)NCCC(=O)O)nc3)cc(C(F)(F)F)cc2C2CC2)cc1Cl [Compound 177, 3-(5-(2-(((2-chloro-2′-methyl-4′-(trifluoromethyl)-[1,1′-biphenyl]-4-yl)amino)methyl)-3-cyclopropyl-5-(trifluoromethyl)phenyl)picolinamido)propanoic acid] | 5.3 | –
21 | Cc1cc(Cl)ccc1-c1ccc(NCc2c(-c3ccc(C(=O)NCCC(=O)O)nc3)cc(C(F)(F)F)cc2C2CC2)cc1Cl [Compound 178, 3-(5-(3-cyclopropyl-2-(((2,4′-dichloro-2′-methyl-[1,1′-biphenyl]-4-yl)amino)methyl)-5-(trifluoromethyl)phenyl)picolinamido)propanoic acid] | 6.3 | –
22 | Cc1cc(C(F)(F)F)ccc1-c1ccc(NCc2c(-c3ccccc3)cc(C(F)(F)F)cc2-c2ccc(C(=O)NCCC(=O)O)nc2)cc1Cl [Compound 179, 3-(5-(2-(((2-chloro-2′-methyl-4′-(trifluoromethyl)-[1,1′-biphenyl]-4-yl)amino)methyl)-5-(trifluoromethyl)-[1,1′-biphenyl]-3-yl)picolinamido)propanoic acid] | 19.6 | –
